One series relates to Jurkat cells. As to the kind of experiment: Cell cytotoxicity assay (propidium iodide, flow cytometry). Conditions: 24 h. Type of series: cell-based, human. As to the method:
1×10^5 Jurkat cells (immortalised human T lymphocytes) are added to the appropriate number of wells of a 96 well plate in 100 μL of media (RPMI supplemented with 10% foetal bovine serum). 1 μL of DMSO control (final concentration 1.0% v/v) or test compound (final concentration 20, 5 or 1 μg/mL) is added to the wells and incubated at 37° C., 5% CO2. After 24 hours, the plate is centrifuged at 1200 rpm for 3 minutes and the supernatant discarded. Cells are then resuspended in 150 μL (final concentration 7.5 μg/mL) of propidium iodide (PI) in PBS and incubated at 37° C., 5% CO2 for 15 minutes. After 15 minutes, cells are analysed by flow cytometry (BD accuri) using the FL3 window. The % viability is calculated as the % of cells that are PI negative in the test wells normalised to the DMSO control.
(In flow cytometry, cells or beads pass a laser one at a time.)

Series [1] concerns CD3/IL2 stimulated PBMC cells. Put plainly: IFNγ release from CD3/IL2 stimulated PBMC cells. Type of series: cell-based. Conditions: Homo sapiens, CD3/IL2 stimulation, 48 h, ELISA. As to the method:
PBMCs from healthy subjects are separated from whole blood using a density gradient (Lymphoprep, Axis-Shield Healthcare). Cells are added to a 96 well plate, and compound at the desired concentration added 2 hours prior to stimulation with a mixture of monoclonal antibody to CD3 (1 μg/ml, eBioscience) and human recombinant IL2 (10 ng/ml, Peprotech). After 48 hours incubation under normal tissue culture conditions, supernatants are collected and IFNγ release determined by Sandwich ELISA (Duo-set, R&D System). The IC50 is determined from the dose response curve.
On the technique in general: ELISA stands for enzyme-linked immunosorbent assay.

Series [2] in a line: Systemic pharmacokinetics and total colon tissue distribution after single oral administration. Type of series: in vivo, male C57BL/6 mice. The note with it: mice, oral 10 mg/kg; for concentration at 0.5 h / concentration at 1 h / concentration at 2 h / concentration at 4 h / concentration at 6 h / concentration at 8 h / concentration at 12 h / concentration at 24 h: male, C57BL/6, mouse. As to the method:
Studies were conducted by Sai Life Sciences (Hinjewadi, Pune, India) to investigate the systemic pharmacokinetics and total colon tissue distribution of compounds of the invention following a single oral administration in male C57BL/6 mice.
A group of twenty four male mice were administered with a solution of test compound formulated at a dose of 10 mg/10 mL/kg in aqueous hydroxypropyl-β-cyclodextrin (20% w/v in water). Blood samples ([…]) were collected from retro-orbital plexus of each mouse under light isoflurane anaesthesia such that the samples were obtained at 0.5, 1, 2, 4, 6, 8, 12 and 24 hr. The blood samples were collected from a set of three mice at each time point in a labeled micro centrifuge tube containing K2EDTA as anticoagulant. Plasma samples were separated by centrifugation at 4000 rpm for 10 min and stored below −70° C. until bioanalysis. After collection of blood sample, animals were humanely euthanized by carbon dioxide asphyxiation to collect total colon tissues. The colons were flushed with cold PBS (pH7.4) to remove contents. The total colon tissues were homogenized with cold PBS (pH7.4) of twice the weight of colon tissue and stored below −70° C. Total volume was three times the total colon tissue weights. All samples were processed for analysis by protein precipitation using acetonitrile and analyzed with a fit-for-purpose LC-MS/MS method. Pharmacokinetic parameters were calculated using the non-compartmental analysis tool of Phoenix WinNonlin® (Version 6.3).

Setting [3] is: total colon tissue, total colon, read-out: Mean total colon level.
Where [4] appears, read: plasma, read-out: Mean plasma concentration.

Each structure is given as a SMILES string. Read-outs that look alike come from different tables or passages of the source.

What is called IC50 is the concentration needed to halve the response being measured. Read a low IC50 as inhibition by little substance. On to `CCc1cc(O)c(F)cc1-c1ccc2c(-c3nc4c([nH]3)CCN(S(=O)(=O)N3CCN(C)CC3)C4)n[nH]c2c1` [Example 6(f), 5-ethyl-2-fluoro-4-(3-(5-((4-methylpiperazin-1-yl)sulfonyl)-4,5,6,7-tetrahydro-1H-imidazo[4,5-c]pyridin-2-yl)-1H-indazol-6-yl)phenol], for which the “% viability at 1 μg/mL” value in the series on Jurkat cells is 29%. Also, the 50% inhibitory concentration (IC50) in series [1] amounted to 9 nM.
On to `CCc1cc(O)c(F)cc1-c1ccc2c(-c3nc4c([nH]3)CCN(S(=O)(=O)N3CCCC3)C4)n[nH]c2c1` [Example 6(d), 5-ethyl-2-fluoro-4-(3-(5-(pyrrolidin-1-ylsulfonyl)-4,5,6,7-tetrahydro-1H-imidazo[4,5-c]pyridin-2-yl)-1H-indazol-6-yl)phenol], for which, in the series with Jurkat cells, the “% viability at 1 μg/mL” value is 74%. In addition, 8.3 nM corresponded to half-maximal inhibition in series [1] (IC50).
Consider `CCc1cc(O)c(F)cc1-c1ccc2c(-c3nc4c([nH]3)CCN(C(=O)Nc3c(C)noc3C)C4)n[nH]c2c1` [Example 4(c), N-(3,5-dimethylisoxazol-4-yl)-2-(6-(2-ethyl-5-fluoro-4-hydroxyphenyl)-1H-indazol-3-yl)-6,7-dihydro-1H-imidazo[4,5-c]pyridine-5(4H)-carboxamide], for which the concentration for half-maximal inhibition (IC50) in series [1] was found to be 44.2 nM.
Take `CCc1cc(O)c(F)cc1-c1ccc2c(-c3nc4c([nH]3)CCN(C(=O)Nc3ccc(S(C)(=O)=O)cc3)C4)n[nH]c2c1` [Example 4(b), 2-(6-(2-ethyl-5-fluoro-4-hydroxyphenyl)-1H-indazol-3-yl)-N-(4-(methylsulfonyl)phenyl)-6,7-dihydro-1H-imidazo[4,5-c]pyridine-5(4H)-carboxamide]: in series [1], the IC50 amounted to 54.8 nM.
For the molecule `CCc1cc(O)c(F)cc1-c1ccc2c(-c3nc4c([nH]3)CCN(C(=O)Nc3ccccc3)C4)n[nH]c2c1` [Example 4(f), 2-(6-(2-ethyl-5-fluoro-4-hydroxyphenyl)-1H-indazol-3-yl)-N-phenyl-6,7-dihydro-1H-imidazo[4,5-c]pyridine-5(4H)-carboxamide], the IC50 in series [1] was determined as 19.6 nM.
Take `CCc1cc(O)c(F)cc1-c1ccc2c(-c3nc4c([nH]3)CCN(S(=O)(=O)N3CCN(S(C)(=O)=O)CC3)C4)n[nH]c2c1` [Example 5]: in the series with Jurkat cells, the “% viability at 1 μg/mL” value came out at 87%. Besides, in series [1], the IC50 came to 17.8 nM.
Take `CCc1cc(O)c(F)cc1-c1ccc2c(-c3nc4c([nH]3)CCN(S(=O)(=O)N3CCC(OC)CC3)C4)n[nH]c2c1` [Example 6(i), 5-Ethyl-2-fluoro-4-(3-(5-((4-methoxypiperidin-1-yl)sulfonyl)-4,5,6,7-tetrahydro-1H-imidazo[4,5-c]pyridin-2-yl)-1H-indazol-6-yl)phenol]: the “% viability at 1 μg/mL” value with Jurkat cells stood at 86%. Moreover, it took 14 nM to reach half-maximal inhibition in series [1] (IC50).
`CCc1cc(O)c(F)cc1-c1ccc2c(-c3nc4c([nH]3)CCN(S(=O)(=O)N3CCC(C(=O)NC)CC3)C4)n[nH]c2c1` [Example 6(b), 1-((2-(6-(2-ethyl-5-fluoro-4-hydroxyphenyl)-1H-indazol-3-yl)-6,7-dihydro-1H-imidazo[4,5-c]pyridin-5(4H)-yl)sulfonyl)-N-methylpiperidine-4-carboxamide]: the concentration for half-maximal inhibition (IC50) in series [1] is 100 nM.
For the molecule `CCc1cc(O)c(F)cc1-c1ccc2c(-c3nc4c([nH]3)CCN(C(=O)NCCOCCOC)C4)n[nH]c2c1` [Example 4(a), 2-(6-(2-ethyl-5-fluoro-4-hydroxyphenyl)-1H-indazol-3-yl)-N-(2-(2-methoxyethoxy)ethyl)-6,7-dihydro-1H-imidazo[4,5-c]pyridine-5(4H)-carboxamide], the “% viability at 1 μg/mL” value with Jurkat cells is 60%. Inhibition in series [1] was half-maximal at 14.6 nM (IC50).
In the same order, the values of `CCc1cc(O)c(F)cc1-c1ccc2c(-c3nc4c([nH]3)CCN(S(=O)(=O)N3CCOCC3)C4)n[nH]c2c1` [Example 6(e), 5-ethyl-2-fluoro-4-(3-(5-(morpholinosulfonyl)-4,5,6,7-tetrahydro-1H-imidazo[4,5-c]pyridin-2-yl)-1H-indazol-6-yl)phenol] are 64% and 4.7 nM.
`CCc1cc(O)c(F)cc1-c1ccc2c(-c3nc4c([nH]3)CCN(C(=O)N3CCc5ccccc53)C4)n[nH]c2c1` [Example 2(b), (2-(6-(2-ethyl-5-fluoro-4-hydroxyphenyl)-1H-indazol-3-yl)-1,4,6,7-tetrahydro-5H-imidazo[4,5-c]pyridin-5-yl)(indolin-1-yl)methanone] showed an IC50 in series [1] of 31.3 nM.
Regarding `CCc1cc(O)c(F)cc1-c1ccc2c(-c3nc4c([nH]3)CCN(C(=O)NCC3CCOCC3)C4)n[nH]c2c1` [Example 3, 2-(6-(2-Ethyl-5-fluoro-4-hydroxyphenvl)-1H-indazol-3-yl)-N-((tetrahydro-2H-byran-4-yl)methyl)-6,7-dihydro-1H-imidazo[4,5-c]pyridine-5(4)-carboxamide], the “% viability at 1 μg/mL” value in the series with Jurkat cells was determined as 91%. Half-maximal inhibition in series [1] (IC50) required 19.5 nM.
With `CCc1cc(O)c(F)cc1-c1ccc2c(-c3nc4c([nH]3)CCN(C(=O)N3CCN(CC)C(=O)C3=O)C4)n[nH]c2c1` [Example 2(c), 1-ethyl-4-(2-(6-(2-ethyl-5-fluoro-4-hydroxyphenyl)-1H-indazol-3-yl)-4,5,6,7-tetrahydro-1H-imidazo[4,5-c]pyridine-5-carbonyl)piperazine-2,3-dione], the “% viability at 1 μg/mL” value in the series with Jurkat cells is given as 99%. The same molecule registered an IC50 in series [1] of 129 nM.
In the case of `CCc1cc(O)c(F)cc1-c1ccc2c(-c3nc4c([nH]3)CCN(C(=O)c3cnc(N5CCCCC5)cn3)C4)n[nH]c2c1` [Reference Compound, reference compound], the “% viability at 1 μg/mL” value in the series on Jurkat cells amounted to 49%. Moreover, in series [2] (setting [3]), the concentration at 0.5 h came to 344 ng/g, the concentration at 1 h worked out at 102 ng/g, the concentration at 2 h worked out at 2370 ng/g and the concentration at 4 h is 2970 ng/g. In addition, in series [2] (setting [3]), the concentration at 6 h turned out to be 201 ng/g, the concentration at 8 h came to 2560 ng/g, the concentration at 12 h is 3230 ng/g and the concentration at 24 h was 16.6 ng/g. In series [2] (setting [4]), the concentration at 0.5 h was 5.2 ng/mL, the concentration at 1 h was 12.8 ng/mL, the concentration at 2 h stood at 2.2 ng/mL and the concentration at 4 h worked out at 14.4 ng/mL. In series [2] (setting [4]), the concentration at 6 h came out at 114 ng/mL, the concentration at 8 h amounted to 95 ng/mL, the concentration at 12 h was 0 ng/mL and the concentration at 24 h is 0 ng/mL. Also, the “Colonic exposure AUC0-24 h” value in series [2] (total colon) is recorded as 43,739 h·ng/g.
`CCc1cc(O)c(F)cc1-c1ccc2c(-c3nc4c([nH]3)CCN(C(=O)N3CCCC3)C4)n[nH]c2c1` [Example 2(d), (2-(6-(2-ethyl-5-fluoro-4-hydroxyphenyl)-1H-indazol-3-yl)-1,4,6,7-tetrahydro-5H-imidazo[4,5-c]pyridin-5-yl)(pyrrolidin-1-yl)methanone] gave a half-inhibitory concentration (IC50) in series [1] of 5.1 nM.
In series [1], `CCc1cc(O)c(F)cc1-c1ccc2c(-c3nc4c([nH]3)CN(C(=O)Nc3cccc5nsnc35)CC4)n[nH]c2c1` [Example 4(e), N-(benzo[c][1,2,5]thiadiazol-4-yl)-2-(6-(2-ethyl-5-fluoro-4-hydroxyphenyl)-1H-indazol-3-yl)-6,7-dihydro-1H-imidazo[4,5-c]pyridine-5(4H)-carboxamide] had an IC50 of 30.9 nM.
